Measurements taken from ChEMBL document CHEMBL1201862, “PubChem BioAssay data set” (2004).
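How tested: cells in 96-well plates exposed to compound for 48 hours at five concentrations. GI50 = concentration required for 50% inhibition of growth.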 Activity calls are given as the source filed them. No stated cut-off is given here; in the data, active = GI50 up to about 1.1 µM and inactive = higher.

Legend:
Assay in all cases: NCI tumour cell line growth inhibition, 48 h
NCI/ADR-RES = test system: NCI/ADR-RES
NCI-H460 = test system: NCI-H460
SK-MEL-28 = test system: SK-MEL-28
IGROV-1 = test system: IGROV-1
A498 = test system: A498
UACC-257 = test system: UACC-257
OVCAR-4 = test system: OVCAR-4
MOLT-4 = test system: MOLT-4
SK-MEL-2 = test system: SK-MEL-2
A549 = test system: A549
OVCAR-3 = test system: OVCAR-3
LOX IMVI = test system: LOX IMVI
HT-29 = test system: HT-29
BT-549 = test system: BT-549
HOP-92 = test system: HOP-92
HL-60 = test system: HL-60
COLO 205 = test system: COLO 205
T47D = test system: T47D
SK-MEL-5 = test system: SK-MEL-5
SNB-75 = test system: SNB-75

SMILES	GI50 (NCI/ADR-RES)	GI50 (NCI-H460)	GI50 (SK-MEL-28)	GI50 (IGROV-1)	GI50 (A498)	GI50 (UACC-257)	GI50 (OVCAR-4)	GI50 (MOLT-4)	GI50 (SK-MEL-2)	GI50 (A549)	GI50 (OVCAR-3)	GI50 (LOX IMVI)	GI50 (HT-29)	GI50 (BT-549)	GI50 (HOP-92)	GI50 (HL-60)	GI50 (COLO 205)	GI50 (T47D)	GI50 (SK-MEL-5)	GI50 (SNB-75)
Cn1c(Nc2ccccc2)c(/C=N\c2ccccc2)c(=O)n(C)c1=O	41 µM (inactive)	56.2 µM (inactive)	> 100 µM (inactive)	38.3 µM (inactive)	80 µM (inactive)	> 100 µM (inactive)	> 100 µM (inactive)	61.5 µM (inactive)	> 100 µM (inactive)	> 100 µM (inactive)	> 100 µM (inactive)	36.4 µM (inactive)	47.9 µM (inactive)	> 100 µM (inactive)	41.7 µM (inactive)	> 100 µM (inactive)				
O=c1ccn(Cc2ccccc2CCl)c(=O)[nH]1	22.1 µM (inactive)	> 100 µM (inactive)	33.8 µM (inactive)	24.3 µM (inactive)		25.8 µM (inactive)	69.7 µM (inactive)	40.6 µM (inactive)	32.7 µM (inactive)	47.8 µM (inactive)	22.3 µM (inactive)		24.2 µM (inactive)		57.9 µM (inactive)	37.2 µM (inactive)	27.2 µM (inactive)	43.9 µM (inactive)	3 µM (inactive)	45.2 µM (inactive)
CC1=CCC2CC1NC(=O)CCOCCC(=O)NC2(C)C (configuration not stated)	> 100 µM (inactive)	> 100 µM (inactive)	> 100 µM (inactive)		> 100 µM (inactive)	> 100 µM (inactive)	> 100 µM (inactive)	> 100 µM (inactive)	> 100 µM (inactive)	> 100 µM (inactive)		> 100 µM (inactive)	> 100 µM (inactive)		> 100 µM (inactive)		> 100 µM (inactive)		> 100 µM (inactive)	
CC(C)=NN/C=N\C(C#N)=C(/N)C#N	> 100 µM (inactive)	> 100 µM (inactive)	> 100 µM (inactive)	> 100 µM (inactive)		> 100 µM (inactive)	> 100 µM (inactive)	> 100 µM (inactive)	> 100 µM (inactive)	> 100 µM (inactive)	> 100 µM (inactive)		> 100 µM (inactive)	> 100 µM (inactive)		> 100 µM (inactive)	> 100 µM (inactive)		25.8 µM (inactive)	0.466 µM (active)
COc1ccc(/C(C)=N/NC(=S)N(C)C)c(O)c1		14 µM (inactive)	16.6 µM (inactive)	4.31 µM (inactive)		20.9 µM (inactive)	2.32 µM (inactive)	4.57 µM (inactive)	14.4 µM (inactive)	4.52 µM (inactive)	4.85 µM (inactive)	2.42 µM (inactive)	3.8 µM (inactive)	18.9 µM (inactive)	29.5 µM (inactive)		2.59 µM (inactive)	7.48 µM (inactive)	12.1 µM (inactive)	43.8 µM (inactive)
CCOC(=O)C1CSCCSC1	> 100 µM (inactive)	17.5 µM (inactive)	> 100 µM (inactive)		44.3 µM (inactive)	> 100 µM (inactive)		> 100 µM (inactive)		> 100 µM (inactive)		> 100 µM (inactive)	> 100 µM (inactive)		> 100 µM (inactive)		> 100 µM (inactive)		43.2 µM (inactive)	43 µM (inactive)
COc1ccc2c(c1)OCc1c-2oc2ccccc2c1=O	> 100 µM (inactive)			75.2 µM (inactive)	> 100 µM (inactive)	> 100 µM (inactive)		> 100 µM (inactive)	> 100 µM (inactive)	> 100 µM (inactive)	> 100 µM (inactive)	> 100 µM (inactive)	> 100 µM (inactive)	> 100 µM (inactive)	> 100 µM (inactive)		> 100 µM (inactive)		41.1 µM (inactive)	34.5 µM (inactive)
O=C1C(=O)C(CCCO)(CCCO)CCCCCCCCC1(CCCO)CCCO	> 100 µM (inactive)	> 100 µM (inactive)	41.9 µM (inactive)	41.3 µM (inactive)	> 100 µM (inactive)	73.8 µM (inactive)	> 100 µM (inactive)		46.8 µM (inactive)	45.8 µM (inactive)	32.2 µM (inactive)	64.7 µM (inactive)	67 µM (inactive)		39.7 µM (inactive)	12.4 µM (inactive)	> 100 µM (inactive)	87.7 µM (inactive)	41.1 µM (inactive)	50.1 µM (inactive)
c1ccc(C(NC2CCCCC2NCCNC2CCCCC2NC(c2ccccc2)(c2ccccc2)c2ccccc2)(c2ccccc2)c2ccccc2)cc1 (configuration not stated)		26.8 µM (inactive)	> 100 µM (inactive)	26.8 µM (inactive)	22.6 µM (inactive)	> 100 µM (inactive)	26.6 µM (inactive)	47.8 µM (inactive)	26.1 µM (inactive)	64.1 µM (inactive)	39.5 µM (inactive)	19 µM (inactive)	> 100 µM (inactive)	17.5 µM (inactive)	13.9 µM (inactive)		> 100 µM (inactive)	11.7 µM (inactive)	39.5 µM (inactive)	
Nc1nc(Cl)c(/C=N\O)c(NCC2(CO)CCC2)n1	28.5 µM (inactive)	32.1 µM (inactive)	54.6 µM (inactive)	> 10 µM (inactive)	19.1 µM (inactive)	29.3 µM (inactive)	27 µM (inactive)	13.5 µM (inactive)		28.4 µM (inactive)	24.2 µM (inactive)	9.95 µM (inactive)	59.3 µM (inactive)	32.6 µM (inactive)	19.6 µM (inactive)	> 10 µM (inactive)	30.3 µM (inactive)		28.8 µM (inactive)	59.3 µM (inactive)
CCCCCCCCCCCCCCCCNc1ccn(C2CC(OP(=O)(O)OCC3OC(n4cc(CC)c(=O)[nH]c4=O)CC3O)C(CO)O2)c(=O)n1 (configuration not stated)	27.9 µM (inactive)		21.4 µM (inactive)	41.5 µM (inactive)	> 100 µM (inactive)	30.3 µM (inactive)	> 100 µM (inactive)	20.3 µM (inactive)	19.4 µM (inactive)	22 µM (inactive)	38.3 µM (inactive)	44.7 µM (inactive)	21.6 µM (inactive)		48.4 µM (inactive)	4.66 µM (inactive)	26 µM (inactive)	44.2 µM (inactive)	2.29 µM (inactive)	23.3 µM (inactive)
CCOC(=O)C(=[N+]=[N-])C(=O)CN1C(=O)C2CC(C)=C(C)CC2C1O (configuration not stated)	> 100 µM (inactive)	> 100 µM (inactive)	> 100 µM (inactive)	> 100 µM (inactive)		> 100 µM (inactive)		> 100 µM (inactive)	> 100 µM (inactive)	> 100 µM (inactive)	> 100 µM (inactive)	> 100 µM (inactive)	> 100 µM (inactive)	> 100 µM (inactive)		> 100 µM (inactive)	> 100 µM (inactive)		> 100 µM (inactive)	> 100 µM (inactive)
CCCCC1(C2c3ccccc3Oc3ccccc32)C(=O)N(c2ccccc2)N(c2ccccc2)C1=O	62.2 µM (inactive)	47.8 µM (inactive)	> 100 µM (inactive)	> 72.3 µM (inactive)	64.9 µM (inactive)	29.4 µM (inactive)	60.1 µM (inactive)	> 10 µM (inactive)	> 100 µM (inactive)	39.1 µM (inactive)	42.3 µM (inactive)	41 µM (inactive)	77.1 µM (inactive)		97.5 µM (inactive)	21.9 µM (inactive)	> 100 µM (inactive)		34.3 µM (inactive)	86.7 µM (inactive)
C=C1CCC([N+](=O)[O-])[C@](C)(N=O)CC[C@@H]2C1CC2(C)C (some centres not stated)	22.8 µM (inactive)	19.1 µM (inactive)	> 10 µM (inactive)	24.4 µM (inactive)		23 µM (inactive)	24.7 µM (inactive)	20.5 µM (inactive)	> 10 µM (inactive)	18.5 µM (inactive)	23.6 µM (inactive)	16.1 µM (inactive)	19.9 µM (inactive)	14.4 µM (inactive)	19.9 µM (inactive)	5.43 µM (inactive)	28.1 µM (inactive)		15.3 µM (inactive)	18.9 µM (inactive)
NCCCNCCSP(=O)(O)O [AMIFOSTINE]	> 750 µM (inactive)	> 750 µM (inactive)	> 750 µM (inactive)	> 750 µM (inactive)	> 75 µM (inactive)	> 750 µM (inactive)	> 635 µM (inactive)	685 µM (inactive)	> 242 µM (inactive)	> 519 µM (inactive)	> 750 µM (inactive)	270 µM (inactive)	> 750 µM (inactive)		> 750 µM (inactive)	176 µM (inactive)	385 µM (inactive)		> 750 µM (inactive)	> 750 µM (inactive)
Cn1c(/C=C/CO)c(CO)c2c1C(=O)C=C(N1CC1)C2=O [APAZIQUONE]	< 0.01 µM (active)	< 0.01 µM (active)	0.0198 µM (active)	0.0244 µM (active)	< 0.0124 µM (active)	< 0.01 µM (active)	0.0516 µM (active)	0.299 µM (active)	< 0.01 µM (active)	< 0.01 µM (active)	0.0206 µM (active)	< 0.01 µM (active)	< 0.01 µM (active)		0.222 µM (active)	0.0259 µM (active)	< 0.0122 µM (active)		< 0.01 µM (active)	< 0.01 µM (active)
